Laboratory results published in patent publication US20260345582A1, “PRODRUG FOR ANTI-AGING RELATED DISEASES AND USE METHOD THEREOF” (Beijing SunCell Bio-Medical Co., Ltd., priority 2022, published 2026).

Key:
[1] = liver microsomal metabolic stability, monkey
Protocol: Hepatic Microsomal Metabolic Stability
A13bGa1 was co-incubated with the mouse, rat, canine, monkey and human […] and the incubation medium at a final drug concentration of 1 μM in the incubation system for 60 minutes. Samples were taken and analyzed at time points 0, 15, 30, 45 and 60 minutes during the incubation. The reaction was terminated by adding an amount of acetonitrile solution containing the internal standard. […] The residual percentage, half-life, intrinsic clearance, amplified clearance, hepatic clearance and hepatic extraction ratio were determined. The entire experiment was performed in triplicate. All data calculations were performed by Microsoft Excel software. Peak areas were detected by extracting the ionic spectrum. The in vitro half-life (t1/2) of the parent compound was detected by fitting the natural logarithm of the percentage elimination of the parent compound linearly to time.
The in vitro intrinsic clearance (in μL/min/mg protein) was calculated using the following equation: in vitro CLint=kV/N
The amplified clearance (in mL/min/kg) was calculated using the following equation: Amplified CLint=kV/N×the amplification factor
The hepatic clearance (in mL/min/kg) was calculated using the following equation: The predicted hepatic CLH=(Q×Fu/RB×the amplified CLint)/(Q+Fu/RB×the amplified CLint) • V=the incubation volume per well (0.2 mL); • N=the total amount of protein (mg) • Q=the hepatic blood flow (mL/min/kg) • Fu=the plasma free rate (assumed to be 1) • RB=the whole blood partition coefficient (assumed to be 1)
The hepatic uptake rate was calculated using the following equation:
The hepatic extraction ratio (ER)=(the predicted hepatic CLH)/Q

[2] = system: platelets in peripheral blood; test: in vivo platelet toxicity test, single intraperitoneal injection; set-up: species or system C57 mice; details: FIG. 4A
Source text: A. Results of the platelet counts in peripheral blood on days 1, 3, 5, 8, and 10 after a single intraperitoneal injection of different doses of the given drug. Each dot in the panel represents the count of platelets detected in 1 mouse at that time point (n=4 mice); A13 represents the parent compound A1331852 administration group, and A13bGa1 represents the prodrug obtained after the β-gal modification of A13, and mpk represents the milligram dose per kilogram of the body weight. There were three different dose groups of 2, 5, and 20 mg/kg for both A13 and A13bGa1 administration. The dashed line in the panel indicates the mean value of the platelet counts of the mice in the control single vehicle administration group.
In Vivo Platelet Toxicity Test
A single administration of A13 or A13bG was performed. Female 5-6 week old C57 mice were treated with a single intraperitoneal injection. A13 and A13bG were administered in three different dose groups of 2, 5, and 20 mg/kg. Approximately 50 μl of blood was collected from each mouse at different time points into the EDTA tubes (RAM Scientific) by means of inner canthal blood extraction, and analyzed using a haematology analyzer for a blood routine examination and a platelet counting. Multiple administrations of A13 or A13bG were performed. Female 5-6 week old C57 mice were treated with multiple intraperitoneal injections. A13 and A13bG were administered in three different dose groups of 2, 5 and 20 mg/kg, three consecutive days per week, followed by a 4-day withdrawal for 3 weeks. […]
For a blood routine examination, 50 μl of fresh blood was collected from each mouse and immediately mixed with EDTA. Blood samples were analyzed by Celltac Alpha MEK-6400 series haematology analyzer (Nihon Kohden, MEK-6400). Data were expressed as the number of different blood cells or platelets per μl of blood. […] A 200 μl of serum was aliquoted and analyzed for alanine aminotransferase (ALT), aspartate aminotransferase (AST), uric acid (UA), and creatinine (CREA) by a chemistry analyzer (Mindray, BS-350E).

[3] = single intraperitoneal administration, 2, 5, 20 mg/kg

Cc1c(-c2ccc(N3CCc4cccc(C(=O)Nc5nc6ccccc6s5)c4C3)nc2C(=O)OCc2ccc(O[C@@H]3O[C@H](CO)[C@H](O)[C@H](O)[C@H]3O)c([N+](=O)[O-])c2)cnn1CC12CC3CC(CC(C3)C1)C2 [Compound A13bGa1]
The hepatic extraction ratio (E) [1]: 0.69 | The intrinsic clearance in vitro Clint ([1]; 1 μM, 60 min): 65.35 μL/min/mg protein | The predicted intrinsic hepatic clearance Clint ([1]; Fu and RB assumed to be 1): 1.811 L/h/kg | CLint scaled at 1 µM ([1]; microsomes): 5.88 L/h/kg | half-life at 1 h, 1 µM ([1]; microsomes): 21.2 min | platelet toxicity compared with the parent compound A13 [2, 3]: significantly less toxic to the platelets than the parent compound A13 | platelet-destroying effect [2, 3]: strong platelet-destroying effect only at the higher dose of 20 mg/kg | effect on the magnitude of the platelet changes in peripheral blood compared with A13 ([2]; single intraperitoneal administration): significantly less than that of A13
